Data reported in ChEMBL document CHEMBL3886492, “Aminopyrimidinones as interleukin receptor-associated kinase inhibitors” (2015).

molecular target: T1, Interleukin-1 receptor-associated kinase 4 (Homo sapiens, UniProt Q9NWZ3); experiment: IMAP technology (Molecular Devices): A 20 ul reaction mixture contains 10 mM TriHCl, pH 7.2, 0.5 nM GST tagged IRAK4 (SignalChem), 100 nM fluorescent peptide substrate (RP7030, Molecular Devices), 100 uM ATP, 1 mM DTT, 1 mM MgCl2, and 0.01% Tween 20. The reaction is initiated by the addition of ATP. After incubation for 30 minutes at 25° C., 60 ul of Progressive IMAP Reagent (Molecular Devices) is added to stop the reaction. Change in RP7030's FP is determined by a FP reader (Analyst HT, LJL BioSystems).
T1 sequence (Q9NWZ3 whole entry): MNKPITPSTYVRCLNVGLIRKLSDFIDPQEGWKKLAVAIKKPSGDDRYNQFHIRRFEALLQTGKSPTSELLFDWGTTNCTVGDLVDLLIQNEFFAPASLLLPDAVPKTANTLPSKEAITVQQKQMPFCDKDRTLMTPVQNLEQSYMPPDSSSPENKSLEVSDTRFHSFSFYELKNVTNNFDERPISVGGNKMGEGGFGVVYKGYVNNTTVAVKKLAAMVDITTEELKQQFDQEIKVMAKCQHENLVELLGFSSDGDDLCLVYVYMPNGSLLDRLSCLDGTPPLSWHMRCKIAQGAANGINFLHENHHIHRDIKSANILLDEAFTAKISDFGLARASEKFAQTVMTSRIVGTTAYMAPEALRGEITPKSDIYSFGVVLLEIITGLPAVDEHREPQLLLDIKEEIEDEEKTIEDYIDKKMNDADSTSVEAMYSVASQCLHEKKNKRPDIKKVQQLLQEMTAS

IC50 [µM]	Structure (SMILES)
0.0275	O=c1[nH]c(N2CCc3ccccc3C2)nc(N[C@@H]2C[C@H](CO)[C@@H](O)[C@H]2O)c1-c1nc2ccccc2s1
0.13	CC1(Nc2nc(N3CCOCC3)[nH]c(=O)c2-c2ccc3ccccc3n2)CCCNC1 (stereo unspecified)
0.27	COC(=O)N1CCC(c2nc(N[C@@H]3CCCNC3)c(-c3nc4ccccc4s3)c(=O)[nH]2)CC1
0.057	O=c1[nH]c(N2CCc3ccccc3C2)nc(N[C@@H]2CCCNC2)c1-c1nc(-c2ccc(F)cc2)cs1
0.554	Cc1csc(-c2c(N[C@@H]3CCCNC3)nc(N3CCOCC3)[nH]c2=O)n1
0.69	CN1CCC(c2nc(N[C@@H]3CCCNC3)c(-c3nc4ccccc4s3)c(=O)[nH]2)CC1
1.69	CC1(Nc2nc(N[C@@H]3C[C@H](CO)[C@@H](O)[C@H]3O)c(-c3nc4ccccc4s3)c(=O)[nH]2)CCC1
0.049	Nc1ccc2c(c1)CN(c1nc(N[C@@H]3CCCNC3)c(-c3nc4ccccc4s3)c(=O)[nH]1)CC2
0.0069	CS(=O)(=O)N1CCN(c2nc(N[C@@H]3CCCNC3)c(-c3nc4c(C5CC5)nccc4s3)c(=O)[nH]2)CC1
0.214	Cc1cccc(-c2c(N[C@@H]3C[C@H](CO)[C@@H](O)[C@H]3O)nc(N3CCOCC3)[nH]c2=O)n1
0.38	O=c1[nH]c(C2CCOCC2)nc(N[C@@H]2CCCNC2)c1-c1nc2ccccc2s1
0.027	CC(C)(C)OC(=O)N1CC2(CCN(c3nc(N[C@@H]4CCCNC4)c(-c4nc5ccccc5s4)c(=O)[nH]3)CC2)C1
0.45	CC(=O)N1CCC(c2nc(N[C@@H]3CCCNC3)c(-c3nc4ccccc4s3)c(=O)[nH]2)CC1
0.002	N[C@H]1CCCC[C@H]1Nc1cccc2sc(-c3c(N[C@@H]4CCCNC4)nc(N4CCOCC4)[nH]c3=O)nc12
0.04	O=c1[nH]c(N2CCC3(CC2)CNC3)nc(N[C@@H]2CCCNC2)c1-c1nc2ccccc2s1
0.07	N[C@H]1CCCC[C@H]1Nc1cccc2sc(-c3c(N[C@@H]4CCCNC4)nc(N4CCOCC4)[nH]c3=O)nc12 (racemic)
